Test results published in patent US20210290765A1, “SURFACTANTS FOR HEALTHCARE PRODUCTS” (AdvanSix Resins & Chemicals LLC, priority 2020, published 2021).

Assays:
Type in all cases: physicochemical
[1] = Critical micelle concentration (CMC) and surface tension versus concentration in water, Wilhelmy plate method; conditions: for plateau value of minimum surface tension that can be reached / surface tension at the CMC (from the plot) / critical micelle concentration (CMC): 23° C.; for plateau value of minimum surface tension that can be reached / surface tension at the CMC (from the plot): pH=7; for critical micelle concentration (CMC): pH=7, Wilhelmy plate
Excerpt: These properties may be measured and described by various methods. One method by which surfactants may be described is by the molecule's critical micelle concentration (CMC). CMC may be defined as the concentration of a surfactant at which micelles form, and above which all additional surfactant is incorporated into micelles.
As surfactant concentration increases, surface tension decreases. Once the surface is completely overlaid with surfactant molecules, micelles begin to form. This point represents the CMC, as well as the minimum surface tension. Further addition of surfactant will not further affect the surface tension. CMC may therefore be measured by observing the change in surface tension as a function of surfactant concentration. One such method for measuring this value is the Wilhemy plate method. A Wilhelmy plate is usually a thin iridium-platinum plate attached to a balance by a wire and placed perpendicularly to the air-liquid interface. The balance is used to measure the force exerted on the plate by wetting. This value is then used to calculate the surface tension (γ) according to Equation 1: […]
wherein I is equal to the wetted perimeter (2w+2d, in which w and d are the plate thickness and width, respectively) and cos θ, the contact angle between the liquid and the plate, is assumed to be 0 in the absence of an extant literature value.
(§1) Nuclear magnetic resonance (NMR) spectroscopy was performed on a Bruker 500 MHz spectrometer. The critical micelle concentration (CMC) was determined by the Wilhelmy plate method at 23° C. with a tensiometer (DCAT 11, DataPhysics Instruments GmbH) equipped with a Pt—Ir plate. Dynamic surface tension was determined with a bubble pressure tensiometer (Krüss BP100, Krüss GmbH), at 23° C. Contact angle was determined with the optical contact angle goniometer (OCA 15 Pro, DataPhysics GmbH) equipped with a digital camera.

[2] = Wetting properties: contact angle on solid substrates, optical contact angle goniometer; conditions: 10x CMC
Excerpt: Surface-active compounds may also be assessed by their wetting ability on solid substrates as measured by the contact angle. When a liquid droplet comes in contact with a solid surface in a third medium, such as air, a three-phase line forms among the liquid, the gas and the solid. The angle between the surface tension unit vector, acting at the three-phase line and tangent at the liquid droplet, and the surface is described as the contact angle. The contact angle (also known as wetting angle) is a measure of the wettability of a solid by a liquid. In the case of complete wetting, the liquid is completely spread over the solid and the contact angle is 0°. Wetting properties are typically measured for a given compound at the concentration of 1-100×CMC, however, it is not a property that is concentration-dependent therefore measurements of wetting properties can be measured at concentrations that are higher or lower.
In one method, an optical contact angle goniometer may be used to measure the contact angle. This device uses a digital camera and software to extract the contact angle by analyze the contour shape of a sessile droplet of liquid on a surface.
as §1

[3] = Dynamic surface tension, bubble pressure tensiometer
Excerpt: Another parameter used to assess the performance of surfactants is dynamic surface tension. The dynamic surface tension is the value of the surface tension for a particular surface or interface age. In the case of liquids with added surfactants, this can differ from the equilibrium value. Immediately after a surface is produced, the surface tension is equal to that of the pure liquid. As described above, surfactants reduce surface tension; therefore, the surface tension drops until an equilibrium value is reached. The time required for equilibrium to be reached depends on the diffusion rate and the adsorption rate of the surfactant.
One method by which dynamic surface tension is measured relies upon a bubble pressure tensiometer. This device measures the maximum internal pressure of a gas bubble that is formed in a liquid by means of a capillary. The measured value corresponds to the surface tension at a certain surface age, the time from the start of the bubble formation to the occurrence of the pressure maximum. The dependence of surface tension on surface age can be measured by varying the speed at which bubbles are produced.
as §1

[4] = substrate Polyethylene terephthalate
[5] = surface age 1 ms, air-water interface, 23° C.

Row | Structure (SMILES) | plateau value of minimum surface tension that can be reached [1] | surface tension at the CMC (from the plot) [1] | critical micelle concentration (CMC) [1] | CA of Surfactant (contact angle) ([2]; substrate Nylon) | CA of Surfactant (contact angle) [2, 4] | CA of Surfactant (contact angle) ([2]; substrate Polyethylene-HD) | CA of Surfactant (contact angle) ([2]; substrate Teflon) | time in which the compound fully saturated the surface ([3]; air-water interface, 23° C.) | dynamic surface tension [3, 5] | further results
1 | CCCCCCCCCCCCOC(=O)CCCCC[N+](C)(C)[O-] [Surfactant 2, dodecyl 6-(dimethylamino)hexanoate N-oxide] | about 28 mN/m | ≤ 30 mN/m | about 0.08 mmol | 21.7 ° | 24.5 ° | 39.3 ° | 57.4 ° | approximately 7.6 seconds |  | surface tension ([1]; at a concentration of 0.08 mmol or greater): ≤ 30 mN/m; dynamic surface tension ([3]; surface age of 4900 ms or greater): ≤ 40 mN/m
2 | CCCCCCCCCCCCOC(=O)CCCCC[N+](C)(C)C.[I-] [Surfactant 1, 6-(dodecyloxy)-N,N,N-trimethyl-6-oxohexan-1-aminium iodide] | about 33 mN/m | about 34 mN/m | about 1 mmol | 31.5 ° | 38.4 ° | 32 ° | 67.1 ° |  | about 55.5 mN/m | surface tension ([1]; at a concentration of 1.0 mmol or greater): about 33.8 mN/m; dynamic surface tension ([3]; surface age 75 ms, air-water interface, 23° C.): about 39.9 mN/m; dynamic surface tension ([3]; surface age 50,410 ms, air-water interface, 23° C.): about 34 mN/m
3 | CCCCCCCCCCCCOC(=O)CCCCC[N+](C)(C)CCCCS(=O)(=O)[O-] [Surfactant 4, 4-((6-(dodecyloxy)-6-oxohexyl)dimethylammonio)butane-1-sulfonate] | about 38 mN/m | about 38 mN/m | about 0.1 mmol | 25.7 ° | 35.6 ° | 46.5 ° | 62.7 ° | approximately 1 seconds |  | surface tension ([1]; at a concentration of 1 mmol or greater): ≤ 37 mN/m; dynamic surface tension ([3]; surface age of 4000 ms or greater): ≤ 40.5 mN/m
4 | CCCCCCCCCCCCOC(=O)CCCCCN(C)C.Cl [Surfactant 3, 6-(dodecyloxy)-N,N-dimethyl-6-oxohexan-1-aminium chloride] | about 30 mN/m | ≤ 30 mN/m | about 1.4 mmol | 15 ° | 18.3 ° | 42.5 ° | 66.6 ° |  | about 50 mN/m | surface tension ([1]; at a concentration of 2.7 mmol or greater): ≤ 33 mN/m; dynamic surface tension ([3]; surface age 100 ms, air-water interface, 23° C.): about 40 mN/m; dynamic surface tension ([3]; surface age 50,000 ms, air-water interface, 23° C.): about 34 mN/m
5 | CCCCCCCCCCCCOC(=O)CCCCCN.Cl [Surfactant 5, 6-(dodecyloxy)-6-oxohexan-1-aminium chloride] | about 23 mN/m | about 23 mN/m | about 0.75 mmol | 18.2 ° | 15.3 ° | 16.6 ° | 39.3 ° | approximately 1.5 seconds |  | surface tension ([1]; at a concentration of 0.7 mmol or greater): ≤ 23.2 mN/m; dynamic surface tension ([3]; surface age of 3185 ms or greater): ≤ 28.5 mN/m
